From patent US12202835B2, “Substituted aromatic ring-linked dioxinoquinazolines and dioxinoquinolines as kinase inhibitors” (BEIJING SCITECH-MQ PHARMACEUTICALS LIMITED, priority 2018, dated 2025)

Assays:
c-MET kinase = c-MET kinase (Homo sapiens (Human), UniProt P08581); assay: Assay of small molecular compounds for inhibiting the activity of c-MET kinase (LANCE TR-FRET); format: biochemical; settings: read-out: CMET IC50
Method in brief: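 LANCE TR-FRET assay with c-MET at 1 nM final after a 5 min room-temperature preincubation with compound (11-point, 3-fold series, 2500–0.042 nM final, 4% DMSO). ULight-JAK-1 (Tyr1023) peptide (100 nM final) and ATP (10 μM final) reacted 60 min in the dark. Inhibition was taken relative to controls, then IC50 fitted.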

Ba/F3 LMNA-NTRK1 cells = assay: Assay for inhibiting the proliferation of Ba/F3 LMNA-NTRK1 cells (CCK-8); format: cell-based; settings: Mus musculus, BaF3
Method in brief: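 Cells were seeded and cultured overnight, then treated with graded compound concentrations (final DMSO 0.25%) for 72 h. CCK-8 was added for 1–2 h at 37 °C and OD450 read. Survival was normalised to untreated and cell-free blank wells, and IC50 was fitted.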

TRKA kinase = TRKA kinase (Homo sapiens (Human), UniProt P04629); assay: Assay of small molecular compounds for inhibiting the activity of TRKA kinase (LANCE TR-FRET); format: biochemical
TRKA kinase, sequence (P04629 33-796): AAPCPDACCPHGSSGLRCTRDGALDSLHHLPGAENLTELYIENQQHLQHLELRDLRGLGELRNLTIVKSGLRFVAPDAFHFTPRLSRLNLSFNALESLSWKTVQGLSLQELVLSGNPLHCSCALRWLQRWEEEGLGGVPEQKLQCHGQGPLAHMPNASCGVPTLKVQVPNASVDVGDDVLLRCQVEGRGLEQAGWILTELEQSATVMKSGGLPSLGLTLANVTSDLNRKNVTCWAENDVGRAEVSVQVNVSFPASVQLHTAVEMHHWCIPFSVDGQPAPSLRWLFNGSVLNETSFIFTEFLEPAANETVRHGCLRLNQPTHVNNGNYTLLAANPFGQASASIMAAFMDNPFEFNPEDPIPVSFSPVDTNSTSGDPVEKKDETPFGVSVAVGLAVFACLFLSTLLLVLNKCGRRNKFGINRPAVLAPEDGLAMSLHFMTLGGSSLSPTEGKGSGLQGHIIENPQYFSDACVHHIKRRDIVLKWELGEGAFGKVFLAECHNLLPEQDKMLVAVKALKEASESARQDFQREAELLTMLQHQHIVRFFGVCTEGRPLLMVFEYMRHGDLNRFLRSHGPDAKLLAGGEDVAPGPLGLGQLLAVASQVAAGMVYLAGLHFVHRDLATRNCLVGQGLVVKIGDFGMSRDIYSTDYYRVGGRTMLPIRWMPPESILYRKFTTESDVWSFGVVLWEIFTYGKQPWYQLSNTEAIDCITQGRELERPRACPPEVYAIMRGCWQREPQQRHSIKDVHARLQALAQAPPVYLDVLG
Method in brief: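 LANCE TR-FRET with ULight-TK peptide; compounds pre-incubated 5 min with TRKA (2× solution 2 nM), then substrate/ATP added (4× mix: 400 nM peptide, 40 μM ATP). Reaction 60 min at room temperature in dark, 1% DMSO final; stopped, detection developed 60 min, signal read.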

c-MET kinase, sequence (P08581 25-1390): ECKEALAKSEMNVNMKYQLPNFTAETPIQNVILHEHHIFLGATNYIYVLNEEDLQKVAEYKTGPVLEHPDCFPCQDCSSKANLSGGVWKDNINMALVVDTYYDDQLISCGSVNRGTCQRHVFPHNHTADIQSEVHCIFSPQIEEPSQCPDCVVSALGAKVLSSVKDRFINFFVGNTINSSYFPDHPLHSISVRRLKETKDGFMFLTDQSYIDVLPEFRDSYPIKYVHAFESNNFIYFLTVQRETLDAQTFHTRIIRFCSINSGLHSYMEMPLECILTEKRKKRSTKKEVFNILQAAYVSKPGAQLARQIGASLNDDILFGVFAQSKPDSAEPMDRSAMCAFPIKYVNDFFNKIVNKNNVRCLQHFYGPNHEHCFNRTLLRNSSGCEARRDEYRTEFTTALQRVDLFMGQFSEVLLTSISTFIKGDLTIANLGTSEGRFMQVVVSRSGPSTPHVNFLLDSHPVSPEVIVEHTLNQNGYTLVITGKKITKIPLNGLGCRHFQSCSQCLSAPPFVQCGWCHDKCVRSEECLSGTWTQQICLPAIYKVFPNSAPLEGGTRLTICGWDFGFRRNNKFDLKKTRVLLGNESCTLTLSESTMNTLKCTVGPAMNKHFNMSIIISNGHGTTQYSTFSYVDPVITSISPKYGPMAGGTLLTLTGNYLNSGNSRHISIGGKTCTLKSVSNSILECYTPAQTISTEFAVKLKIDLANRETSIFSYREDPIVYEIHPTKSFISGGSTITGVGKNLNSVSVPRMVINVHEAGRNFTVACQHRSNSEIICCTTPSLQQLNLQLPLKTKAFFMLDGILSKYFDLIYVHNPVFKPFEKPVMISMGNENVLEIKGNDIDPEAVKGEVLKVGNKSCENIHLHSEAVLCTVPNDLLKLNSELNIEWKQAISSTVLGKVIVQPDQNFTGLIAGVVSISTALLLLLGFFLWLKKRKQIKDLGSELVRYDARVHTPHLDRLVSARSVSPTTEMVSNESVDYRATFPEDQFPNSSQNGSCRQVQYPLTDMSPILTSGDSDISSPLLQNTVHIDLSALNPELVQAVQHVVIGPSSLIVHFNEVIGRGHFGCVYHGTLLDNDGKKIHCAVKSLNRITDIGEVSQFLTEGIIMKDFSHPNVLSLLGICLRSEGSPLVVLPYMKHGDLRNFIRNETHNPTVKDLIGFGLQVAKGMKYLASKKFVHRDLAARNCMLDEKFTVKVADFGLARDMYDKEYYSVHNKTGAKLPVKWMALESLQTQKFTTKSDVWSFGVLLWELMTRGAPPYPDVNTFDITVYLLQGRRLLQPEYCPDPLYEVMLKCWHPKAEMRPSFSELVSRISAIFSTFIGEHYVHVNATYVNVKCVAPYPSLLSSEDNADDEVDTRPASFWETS

Compound	IC50 (c-MET kinase) [nM]	IC50 (Ba/F3 LMNA-NTRK1 cells) [nM]	IC50 (TRKA kinase) [nM]
COCCOc1cc2nccc(Oc3ccc(NC(=O)c4cn(C)c(=O)n(-c5ccc(F)cc5)c4=O)cc3)c2c2c1OCCO2 [Example 147, N-(4-((5-(2-methoxyethoxy)-2,3-dihydro-[1,4]dioxino[2,3-f]quinolin-10-yl)oxy)phenyl)-3-(4-fluorophenyl)-1-methyl-2,4-dioxo-1,2,3,4-tetrahydropyrimidine-5-carboxamide]	≤ 50	< 50	< 50
CCn1cc(C(=O)Nc2ccc(Oc3ccnc4cc(OCCOC)c5c(c34)OCCO5)cc2)c(=O)n(-c2ccc(F)cc2)c1=O [Example 148, N-(4-((5-(2-methoxyethoxy)-2,3-dihydro-[1,4]dioxino[2,3-f]quinolin-10-yl)oxy)phenyl)-3-(4-fluorophenyl)-1-ethyl-2,4-dioxo-1,2,3,4-tetrahydropyrimidine-5-carboxamide]	≤ 50	< 50	< 50
Cn1cc(C(=O)Nc2ccc(Oc3ccnc4cc(OCC(C)(C)O)c5c(c34)OCCO5)cc2)c(=O)n(-c2ccc(F)cc2)c1=O [Example 149, N-(4-((5-(2-hydroxy-2-methylpropoxy)-2,3-dihydro-[1,4]dioxino[2,3-f]quinolin-10-yl)oxy)phenyl)-3-(4-fluorophenyl)-1-methyl-2,4-dioxo-1,2,3,4-tetrahydropyrimidine-5-carboxamide]	≤ 50	< 50	< 50
CCn1cc(C(=O)Nc2ccc(Oc3ccnc4cc(OCC(C)(C)O)c5c(c34)OCCO5)cc2)c(=O)n(-c2ccc(F)cc2)c1=O [Example 150, N-(4-((5-(2-hydroxy-2-methylpropoxy)-2,3-dihydro-[1,4]dioxino[2,3-f]quinolin-10-yl)oxy)phenyl)-3-(4-fluorophenyl)-1-ethyl-2,4-dioxo-1,2,3,4-tetrahydropyrimidine-5-carboxamide]	≤ 50	< 50	< 50
COc1cc2nccc(Oc3ccc(NC(=O)c4cn(C)c(=O)n(-c5ccc(F)cc5)c4=O)c(F)c3)c2c2c1OCCO2 [Example 153, N-(2-fluoro-4-((5-methoxy-2,3-dihydro-[1,4]dioxino[2,3-f]quinolin-10-yl)oxy)phenyl)-3-(4-fluorophenyl)-1-methyl-2,4-dioxo-1,2,3,4-tetrahydropyrimidine-5-carboxamide]	≤ 50	< 50	< 50
COCCOc1cc2nccc(Oc3ccc(NC(=O)c4cn(C)c(=O)n(-c5ccc(F)cc5)c4=O)c(F)c3)c2c2c1OCCO2 [Example 155, N-(2-fluoro-4-((5-(2-methoxyethoxy)-2,3-dihydro-[1,4]dioxino[2,3-f]quinolin-10-yl)oxy)phenyl)-3-(4-fluorophenyl)-1-methyl-2,4-dioxo-1,2,3,4-tetrahydropyrimidine-5-carboxamide]	≤ 50	< 50	< 50

Next, values leading:

IC50 (c-MET kinase) [nM]	IC50 (Ba/F3 LMNA-NTRK1 cells) [nM]	IC50 (TRKA kinase) [nM]	Compound
≤ 50	< 50	< 50	CCn1cc(C(=O)Nc2ccc(Oc3ccnc4cc(OCCOC)c5c(c34)OCCO5)cc2F)c(=O)n(-c2ccc(F)cc2)c1=O [Example 156, N-(2-fluoro-4-((5-(2-methoxyethoxy)-2,3-dihydro-[1,4]dioxino[2,3-f]quinolin-10-yl)oxy)phenyl)-3-(4-fluorophenyl)-1-ethyl-2,4-dioxo-1,2,3,4-tetrahydropyrimidine-5-carboxamide]
500 to 5000	< 50	< 50	Cn1cc(C(=O)Nc2ccc(Oc3ccnc4ccc5c(c34)OCCO5)cc2F)c(=O)n(-c2ccc(F)cc2)c1=O [Example 162, N-(4-((2,3-dihydro-[1,4]dioxino[2,3-f]quinolin-10-yl)oxy)-2-fluorophenyl)-3-(4-fluorophenyl)-1-methyl-2,4-dioxo-1,2,3,4-tetrahydropyrimidine-5-carboxamide]
≤ 50	< 50	< 50	COc1cc2nccc(Oc3cc(C)c(NC(=O)c4cn(C)c(=O)n(-c5ccc(F)cc5)c4=O)cc3F)c2c2c1OCCO2 [Example 177, N-(5-fluoro-4-((5-methoxy-2,3-dihydro-[1,4]dioxino[2,3-f]quinolin-10-yl)oxy)-2-methylphenyl)-3-(4-fluorophenyl)-1-methyl-2,4-dioxo-1,2,3,4-tetrahydropyrimidine-5-carboxamide]
≤ 50	< 50	< 50	COCCOc1cc2nccc(Oc3cc(C)c(NC(=O)c4cn(C)c(=O)n(-c5ccc(F)cc5)c4=O)cc3F)c2c2c1OCCO2 [Example 179, N-(5-fluoro-4-((5-(2-methoxyethoxy)-2,3-dihydro-[1,4]dioxino[2,3-f]quinolin-10-yl)oxy)-2-methylphenyl)-3-(4-fluorophenyl)-1-methyl-2,4-dioxo-1,2,3,4-tetrahydropyrimidine-5-carboxamide]
≤ 50	< 50	< 50	CCn1cc(C(=O)Nc2cc(F)c(Oc3ccnc4cc(OCCOC)c5c(c34)OCCO5)cc2C)c(=O)n(-c2ccc(F)cc2)c1=O [Example 180, N-(5-fluoro-4-((5-(2-methoxyethoxy)-2,3-dihydro-[1,4]dioxino[2,3-f]quinolin-10-yl)oxy)-2-methylphenyl)-3-(4-fluorophenyl)-1-ethyl-2,4-dioxo-1,2,3,4-tetrahydropyrimidine-5-carboxamide]
